Data taken from publication PMC2375285, “Inhibition of all-TRANS-retinoic acid metabolism by R116010 induces antitumour activity” (British Journal of Cancer, 2002).
pIC50: −log10 of the molar value.

What was measured:
CYP2C11 = target: T1, CYP2C11 (Rattus norvegicus, UniProt P08683); assay: Testosterone 2α-hydroxylase in rat liver microsomes; format: biochemical
T1 construct: hydroxylation of testosterone (CYP2C11, CYP2A1, CYP3A, CYP2B1/2) in rat liver microsomes; from tissue; host or cells: rat liver, microsomes
T1 sequence (P08683 1-500): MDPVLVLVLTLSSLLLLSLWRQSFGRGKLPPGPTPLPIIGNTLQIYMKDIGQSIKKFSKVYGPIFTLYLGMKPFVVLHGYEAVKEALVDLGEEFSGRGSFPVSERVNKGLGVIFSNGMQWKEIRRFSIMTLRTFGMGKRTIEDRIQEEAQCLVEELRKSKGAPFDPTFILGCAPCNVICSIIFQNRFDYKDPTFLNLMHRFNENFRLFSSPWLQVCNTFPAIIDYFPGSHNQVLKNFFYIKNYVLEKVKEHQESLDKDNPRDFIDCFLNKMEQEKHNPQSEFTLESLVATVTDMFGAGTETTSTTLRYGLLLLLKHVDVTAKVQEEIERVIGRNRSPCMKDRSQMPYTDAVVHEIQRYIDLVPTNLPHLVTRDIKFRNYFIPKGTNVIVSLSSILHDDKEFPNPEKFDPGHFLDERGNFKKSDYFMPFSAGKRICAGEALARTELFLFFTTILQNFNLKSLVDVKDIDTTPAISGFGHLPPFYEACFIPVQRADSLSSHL
Experimental: The conversion of androstenedione to estrone by aromatase (CYP19) in human placental microsomes, the conversion of 17-hydroxy-20-dihydroprogesterone to testosterone by 17,20-lyase (CYP17) in rat testicular S10 fractions, and the 2α-, 7α-, 6β-, and 16β-hydroxylation of testosterone (CYP2C11, CYP2A1, CYP3A, CYP2B1/2) in rat liver microsomes were carried out as described ([Vanden Bossche et al, 1990]).

T47D cells = assay: T47D cell proliferation (MTT assay, 7 days); format: cell-based, human; conditions: for enhancement of the antiproliferative activity of RA: T47D cells
Experimental: T47D cells were seeded in Falcon® 96-well cell culture plates (Life Technologies, Merelbeke, Belgium) at 2500 cells per well in a total volume of 150 μl. Cells were allowed to adhere to plastic for 24 h. Drugs and/or medium were added to a final volume of 200 μl (day 0). Cells were grown under these conditions for 7 days, with renewal of medium and drugs on days 2 and 5. On day 7, medium was renewed and 25 μl MTT-solution was added, and cells were further incubated for 2 h in a cell incubator. The medium was aspirated and 25 μl Sorensen glycine buffer (0.1 M glycine, 0.1 M NaCl; pH 10.5) was added together with 100 μl DMSO to solubilize the blue MTT-formazan product. […] Data are presented as mean±s.d. of three or four independent experiments. Within an experiment, the result of each experimental condition is the mean of six replicate wells. The IC50-values were calculated by non-linear regression analysis using SigmaPlot 4.01 software.

[1] = system: RA metabolism in T47D cells; assay: Reverse-phase HPLC analysis of radiolabelled RA metabolites in T47D cells; format: cell-based, human; conditions: 1 μM R116010; T47D cells pretreated with 1 μM RA
Experimental: The T47D cell suspension was prepared as described above and 450 μl was incubated with 0.1 μM [11, 12-^3H(N)]RA for 90 min. After centrifugation for 10 min at 780 g, the supernatant was analyzed for the presence of RA metabolites. Reverse-phase HPLC analysis was carried out as described previously ([Van heusden et al, 1998]).

TA3-Ha mammary tumours = assay: TA3-Ha mammary carcinoma model
Experimental: Cells (1.5×10^6) were injected intraperitoneally in syngeneic A/J mice. […] Each group consisted of 10 animals for experiments with R116010 and of six animals for experiments with RA. All treatments were performed by oral gavage. […] The control groups were given the vehicle 20% 4-OH-β-cyclodextrine in sterile saline. Mice were daily examined for adverse drug effects. At the end of the experiments, subcutaneous tumours were excised 24 h after the last treatment and weighed to validate the antitumoural effects of the treatment.
Data are represented as box plots showing median group value, 25/75th percentile, 10/90th percentile and outliers. Groups were statistically compared to the vehicle-treated groups using the Mann–Whitney U-test. Significance was defined at the level of P<0.05.

CYP26A1 = target: T2, CYP26A1 (Homo sapiens, UniProt O43174); assay: RA 4-hydroxylase in T47D human breast cancer microsomes; format: biochemical
T2 construct: microsomes of T47D human breast cancer cells that were pretreated for 16 h with 1 μM RA to induce RA metabolism; endogenous in cells; host or cells: T47D human breast cancer cells, pretreated with 1 μM RA for 16 h; microsomal fraction
T2 sequence (O43174 1-497): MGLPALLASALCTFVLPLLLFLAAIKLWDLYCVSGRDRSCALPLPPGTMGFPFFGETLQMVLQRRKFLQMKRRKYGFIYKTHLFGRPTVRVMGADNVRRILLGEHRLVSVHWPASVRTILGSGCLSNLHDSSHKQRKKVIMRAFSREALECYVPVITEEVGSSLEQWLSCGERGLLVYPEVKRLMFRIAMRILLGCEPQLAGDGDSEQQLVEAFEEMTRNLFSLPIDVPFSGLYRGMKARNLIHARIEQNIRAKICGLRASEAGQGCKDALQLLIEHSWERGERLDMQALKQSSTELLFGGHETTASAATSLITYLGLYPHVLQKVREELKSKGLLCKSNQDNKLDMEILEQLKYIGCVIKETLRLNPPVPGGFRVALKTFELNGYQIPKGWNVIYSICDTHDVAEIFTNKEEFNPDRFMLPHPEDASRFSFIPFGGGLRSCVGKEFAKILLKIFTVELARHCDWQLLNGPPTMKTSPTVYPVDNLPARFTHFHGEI
Experimental: Metabolism of RA by CYP26A1 was measured in microsomes of T47D human breast cancer cells that were pretreated for 16 h with 1 μM RA to induce RA metabolism. Microsomes were prepared exactly as described by [Han and Choi (1996)], and RA metabolism was measured as described by [Van Wauwe et al (1994)]. The conversion of androstenedione to estrone by aromatase (CYP19) in human placental microsomes, the conversion of 17-hydroxy-20-dihydroprogesterone to testosterone by 17,20-lyase (CYP17) in rat testicular S10 fractions, and the 2α-, 7α-, 6β-, and 16β-hydroxylation of testosterone (CYP2C11, CYP2A1, CYP3A, CYP2B1/2) in rat liver microsomes were carried out as described ([Vanden Bossche et al, 1990]).

C[C@@H]([C@H](c1ccc(Nc2nc3ccccc3s2)cc1)n1ccnc1)N(C)C [R116010, [S-(R*,R*)]-N-[4-[2-(dimethylamino)-1-(1H-imidazole-1-yl)propyl]-phenyl]-2-benzothiazolamine]
pIC50 (CYP2C11; Rat liver microsomes): < 5.00 | inhibition at 10 μM (CYP2C11; probe testosterone (2α-hydroxylation), 10 μM R116010, rat liver microsomes, read-out: percentage of inhibition, Testosterone 2α-hydroxylase (CYP2C11)): 28% | enhancement of the antiproliferative activity of RA (T47D cells; 0.01 μM R116010): 1.25 fold | enhancement of the antiproliferative activity of RA (T47D cells; 0.1 μM R116010): 2.6 fold | enhancement of the antiproliferative activity of RA (T47D cells; 1 μM R116010): three-fold | effect on T47D cell proliferation by itself (T47D cells; compound alone, 7 days, MTT): no effect | inhibition of RA metabolism (HPLC) [1]: completely inhibited | body weight decrease (TA3-Ha mammary tumours; R116010 5 mg kg^−1, mice): ~15% | toxicity findings (TA3-Ha mammary tumours; at toxic dose: RA 5, R116010 5, liarozole fumarate 20 mg kg^−1): hair loss and bone fractures | therapeutic window (TA3-Ha mammary tumours; maximum tolerated dose versus lowest active dose, TA3-Ha model): 30 fold | dose at which toxicity was observed (TA3-Ha mammary tumours; mice, oral, twice daily, toxicity related to hypervitaminosis A): 5 mg/kg | fold more potent than liarozole-fumarate in TA3-Ha model (TA3-Ha mammary tumours; oral, twice daily): approximately 60 fold | lowest active dose inhibiting TA3-Ha tumour growth (TA3-Ha mammary tumours; oral, twice daily, day 1 until day 21, tumour weight): 0.16 mg/kg | pIC50 (CYP26A1): 8.40
